Blank lines part the entries; values can stand above or below the compound they belong to.
Experiments:
NemR^C106 [1] = biological target: T1, NemR^C106 (Escherichia coli, UniProt P67430, C21S/C98S/C116S/C149S/C153S); assay: intrinsic Trp fluorescence shift; assay type: binding; details: covalent (oxidation); 2 µM protein, 50 µM oxidant; 100 mM sodium phosphate pH 7.4
T1 construct: pET-21b(+) in E. coli BL21 (DE3); Ni-Sepharose purified; DTT-reduced before assay; NemR homo-dimer

[2] = biological target: Hypocrates (NemR-cpYFP biosensor) (E. coli); assay: SEC; Superdex 200 Increase 10/300 GL, 100 mM sodium phosphate buffer pH 7.4, 24 °C, 0.75 ml/min; samples incubated with 5 mM DTT or with N-chlorotaurine at 1:20 protein/oxidant ratio for 5 min before injection; absorbance at 415 nm; column calibrated with mass standards
[3] = biological target: T2, Hypocrates (NemR-cpYFP biosensor) (Escherichia coli, UniProt P67430, C21S/C98S/C116S/C149S/C153S, form not given); assay: fluorescence titration, Ex500/Ex417 ratio; assay type: binding; details: covalent (oxidation); 100 mM sodium phosphate pH 7.4, 25 °C; 0.5 µM protein
T2 construct: cpYFP (from HyPer-2) inserted with SAG/GT linkers into flexible loop of NemR^C106; pQE30; with Green fluorescent protein (circularly permuted yellow variant, cpYFP)
T2 sequence (P67430 whole entry C21S/C98S/C116S/C149S/C153S, form open): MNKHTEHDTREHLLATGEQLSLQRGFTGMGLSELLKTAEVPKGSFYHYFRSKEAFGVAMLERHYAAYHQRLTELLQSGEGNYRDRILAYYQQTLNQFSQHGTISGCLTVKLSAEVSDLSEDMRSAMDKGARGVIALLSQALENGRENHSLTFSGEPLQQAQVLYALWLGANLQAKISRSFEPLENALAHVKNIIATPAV

[4] = biological target: T3, Hypocrates (NemR-cpYFP biosensor) (Escherichia coli, UniProt P67430, C21S/C98S/C106S/C116S/C149S/C153S, form not given); assay: fluorescence excitation spectra in E. coli cells expressing the sensor; assay type: cell-based; details: HypocratesCS, key Cys replaced; 80 µM oxidant; PBS pH 7.4
T3 construct: cpYFP (from HyPer-2) inserted with SAG/GT linkers into flexible loop of NemR^C106; pQE30; with Green fluorescent protein (circularly permuted yellow variant, cpYFP)
T3 sequence (P67430 whole entry C21S/C98S/C106S/C116S/C149S/C153S, form open): as the sequence (P67430 whole entry C21S/C98S/C116S/C149S/C153S, form open) above, with C106S counted along it

[5] = biological target: T4, Hypocrates (NemR-cpYFP biosensor) (Escherichia coli, UniProt P67430, C21S/C98S/C116S/C149S/C153S/K175A, form not given); assay: as above; assay type: cell-based; details: HypocratesKA; 80 µM oxidant; PBS pH 7.4
T4 construct: cpYFP (from HyPer-2) inserted with SAG/GT linkers into flexible loop of NemR^C106; pQE30; with Green fluorescent protein (circularly permuted yellow variant, cpYFP)
T4 sequence (P67430 whole entry C21S/C98S/C116S/C149S/C153S/K175A, form open): as the sequence (P67430 whole entry C21S/C98S/C116S/C149S/C153S, form open) above, with K175A counted along it

[6] = biological target: T2, Hypocrates (NemR-cpYFP biosensor); assay: stopped-flow, cpYFP fluorescence (λex […] nm); assay type: binding; details: covalent (oxidation, chlorination); 100 mM sodium phosphate pH 7.4, 25 °C; 0.5 µM protein
NemR^C106 [7] = biological target: T1, NemR^C106; assay: stopped-flow, intrinsic Trp fluorescence; assay type: binding; details: covalent (oxidation); 100 mM sodium phosphate pH 7.4, 25 °C; 1 µM protein

T1 sequence (P67430 whole entry C21S/C98S/C116S/C149S/C153S): as the sequence (P67430 whole entry C21S/C98S/C116S/C149S/C153S, form open) above

Compound: OBr [NaOBr]
intrinsic Trp fluorescence shift (NemR^C106 [1]): The oxidants NaOCl, NCT, and NaOBr caused Trp-fluorescence shifts

stoichiometry N [2]: 2
Compound: Hypocrates (NemR-cpYFP biosensor)

sensitivity (slope of initial linear part) [3]: ~ 1.11 µM^−1
Compound: N#CSO [HOSCN]

second-order rate constant (kon) [6]: (1.4 ± 0.056) × 10^6 M^−1s^−1
second-order rate constant (NemR^C106 [7]): ~ 3.0 × 10^5 M^−1s^−1
Compound: OCl [NaOCl]
no response [4]: E. coli cells expressing HypocratesCS did not respond anymore to the addition of NaOCl
fluorescence excitation spectra in E. coli cells expressing the sensor [5]: we found that HypocratesKA is still highly sensitive to NaOCl (Fig. 1i)
